Data published in US20110263539A1, “SHIP 1 MODULATOR COMPOUNDS” (THE UNIVERSITY OF BRITISH COLUMBIA, priority 2006, published 2011).

Assays:
J774.1a macrophage cells [1] = experiment: Macrophage TNF-α NO assay (Assay 3); format: cell-based; conditions: 10 μg/ml test compound, LPS, 24 hr, Griess reagent; also: key: a ‘+’ indicates a positive result for desired activity; a ‘−’ indicates a negative result for desired activity
Method: Assay 3) Macrophage TNF-α NO assay. J774.1a macrophage cells were treated with 10 μg/ml of test compound dissolved in solvent for 40 minutes prior to the addition of LPS. Culture supernatants were collected after 24 hr. for determination of NO concentration using the Griess reagent.

J774.1 macrophage cells = experiment: TNFα production in J774.1 macrophages (Example 9); format: cell-based; conditions: 2 ng/mL LPS
Method: J774.1 macrophage cells were plated at 2×10^5 cells/well in 24 well plates. The next day the media was changed and Compound 100, Compound 103 or cyclodextrin carrier were added to the wells at the indicated concentrations for 30 min prior to stimulation of the cells with 2 ng/mL lipopolysaccharide (LPS). LPS activation of macrophages leads to production of TNF alpha which can be detected in the culture supernatant and quantified by ELISA. The results are depicted in a graph in FIG. 1.

J774.1a macrophage cells [2] = experiment: Macrophage TNF-α production (Assay 2); format: cell-based; conditions: 10 μg/mL test compound, 100 ng/mL LPS, ELISA; also: key: a ‘+’ indicates a positive result for desired activity; a ‘−’ indicates a negative result for desired activity
Method: Assay 2) Macrophage TNF-α production. J774.1a macrophage cells were treated with 10 μg/mL of test compound dissolved in solvent (e.g. cyclodextran) for 40 minutes prior to the addition of 100 ng/mL LPS. Culture supernatants were collected after 2 hr and 5 hr for TNF-α determination by ELISA.

[3] = tested on: Bone marrow derived mast cells; experiment: Calcium influx in mast cells (Example 11); format: cell-based; conditions: anti IgE antibody, Fura-2
Text: The activation of mast cells by IgE receptor crosslinking leads to an influx of calcium into the cells, followed by degranulation and secretion of pro-inflammatory mediator. Bone marrow derived mast cells were loaded with the fluorescent calcium indicator dye Fura-2 prior to treatment for 1 hr with Compound 106 or PBS carrier. Cells were then stimulated or not with an anti IgE antibody to cross-link the IgE receptors. Calcium influx was then monitored by fluorimetry. The results are depicted in a graph in FIG. 3.

Mast cells = experiment: Stimulation of mast cells by FcεRI crosslinking (Assay 4); format: cell-based; conditions: anti-DNP IgE, DNP-HSA
Method: Assay 4) Stimulation of mast cells by FcåRI crosslinking. Mast cells were pre-loaded overnight in BMMC medium lacking IL-3 with 0.1 μg/ml anti-DNP IgE (SPE-7, Sigma, Oakville, Ont). For calcium flux measurements, cells were incubated with 2 μM fura 2-acetoxymethyl ester (Molecular Probes, Eugene, Oreg.) in Tyrode's buffer at 23° C. for 45 min. Cells were then washed and incubated in the presence of the test compound 30 min prior to stimulation with the indicated concentration of DNP-human serum albumin (DNP-HSA). Calcium influx was monitored by spectrofluorometry as described previously. For analysis of intracellular signaling, cells were pre-loaded with anti-DNP IgE as above, pre-treated with the test compound for 30 min at 37° C. and stimulated with 20 ng/ml DNP-HSA for 5 min. Total cell lysates were then prepared and analyzed for phospho-PKB, phospho-p38^MAPK, phospho-MAPK, Grb-2 (Cell Signalling, Mississauga, Ont) and SHIP^6 by immunoblot analysis.

[4] = tested on: SHIP−/− bone marrow derived macrophages; experiment: LPS stimulation of SHIP−/− bone marrow derived macrophages; format: cell-based, mice; conditions: SHIP−/− cells, 15 μM, 10 ng/mL LPS 2 h
Method: (§1) Bone marrow cells were aspirated from 4 to 8 week old C57B16×129Sv mixed background mice and SHIP and SHIP cells prepared as described previously. Bone marrow derived macrophages from SHIP^+/+ and SHIP^−/− mice were obtained and maintained in IMDM supplemented with 10% FCS, 150 μM MTG, 2% C127 cell conditioned medium as a source of macrophage colony stimulating factor (M-CSF) (macrophage medium)
LPS stimulation of macrophages. For the analysis of LPS-stimulated TNFα production, 2×10^5 cells were plated the night before in 24 well plates in macrophage medium. The next day, the medium was changed and AQX-016A or carrier was added to cells at the indicated concentrations for 30 min prior to the addition of 10 ng/mL LPS. Supernatants were collected for TNFα determination by ELISA (BD Biosciences, Mississauga, ON, Canada). For analysis of intracellular signaling, 2×10^6 cells were plated the night before in 6 cm tissue culture plates. The next day, the cells were cultured in macrophage medium without M-CSF for 1 hr at 37° C. and then pretreated with AQX-016A or carrier for 30 min prior to the addition of 10 ng/mL LPS for 15 min. Cells were washed with 4° C. […]
The target specificity and biological efficacy of AQX-016A were assessed by comparing AQX-016A's effects on PI3K-regulated processes in primary SHIP^+/+ vs SHIP^−/− macrophages and mast cells. […]

[5] = tested on: SHIP+/+ bone marrow derived macrophages; experiment: LPS stimulation of SHIP+/+ bone marrow derived macrophages; format: cell-based, mice; conditions: SHIP+/+ cells, 15 μM, 10 ng/mL LPS 2 h
Method: as §1
LPS stimulation of macrophages. For the analysis of LPS-stimulated TNFα production, 2×10^5 cells were plated the night before in 24 well plates in macrophage medium. The next day, the medium was changed and AQX-016A or carrier was added to cells at the indicated concentrations for 30 min prior to the addition of 10 ng/mL LPS. Supernatants were collected for TNFα determination by ELISA (BD Biosciences, Mississauga, ON, Canada). For analysis of intracellular signaling, 2×10^6 cells were plated the night before in 6 cm tissue culture plates. The next day, the cells were cultured in macrophage medium without M-CSF for 1 hr at 37° C. and then pretreated with AQX-016A or carrier for 30 min prior to the addition of 10 ng/mL LPS for 15 min. Cells were washed with 4° C. PBS and resuspended in lysis buffer (50 mM Hepes, 2 mM EDTA, 1 mM NaVO4, 100 mM NaF, 50 mM NaPPi and 1% NP40) supplemented with Complete Protease Inhibitor Cocktail (Roche, Montreal, Canada). Lysates were rocked at 4° C. for 30 min and clarified by centrifuging 20 min at 12000×g. Lysates were then made 1× in Laemmli's buffer, boiled 2 min and loaded onto 7.5% SDS polyacrylamide […]. Immunoblot analysis for phospho PKB (Cell Signalling, Mississauga, Ont), SHIP and actin (Santa Cruz, Santa Cruz, Calif.) were carried out as described previously.
The target specificity and biological efficacy of AQX-016A were assessed by comparing AQX-016A's effects on PI3K-regulated processes in primary SHIP^+/+ vs SHIP^−/− macrophages and mast cells. […] LPS stimulation of macrophages is associated with a PIP3-dependent release of pro-inflammatory mediators such as TNFα. […]

ΔC2 SHIP = experiment: SHIP enzyme assay with C2 domain deleted SHIP; format: biochemical; conditions: PI-3,4-P2 20 μM or Compound 100 3 μM, 30 μM IP4
Text: A His6 tagged SHIP ΔC2 domain deletion mutant (deleting residues 725 to 863) in the mammalian expression vector pME18S was generated by a standard PCR-based methodology. An N-terminal His6 C2 domain construct was also generated by PCR inserted into the pET28C bacterial expression vector using EcoRI and NdeI restriction sites.
The allosteric regulation of enzymes has remained under-appreciated primarily because allosteric effectors are not easy to find. The molecular mechanism by which Compound 100 activated SHIP was investigated, first by performing classical enzyme kinetic analysis of its phosphatase activity. Activity measurements were performed with substrate concentrations from 10-100 μM.
The SHIP protein contains a C2 domain located at the carboxyterminal end of its phosphatase domain. […] SHIP lacking its the C2 domain (ΔC2 SHIP) was prepared.

SHIP enzyme = experiment: In vitro SHIP enzyme assay (Assay 1); format: biochemical; conditions: wild-type SHIP
Method: Assay 1) In vitro testing in a SHIP enzyme assay. Test compounds were dissolved in a suitable solvent (e.g. EtOH, DMSO and others) and diluted into aqueous buffer (20 mM Tris HCl, pH 7.5 and 10 mM MgCl2). SHIP enzyme assays were performed in 96-well microtitre plates with 10 ng of enzyme/well in a total volume of 25 μL of 20 mM Tris HCl, pH 7.5 and 10 mM MgCl2. SHIP enzyme was incubated with test extracts (provided in solvent) or vehicle for 15 min at 23° C. before the addition of 100 μM inositol-1,3,4,5-tetrakisphosphate (Echelon Biosciences Inc, Salt Lake City, Utah). After 20 min at 37° C. and the amount of inorganic phosphate released assessed by the addition of Malachite Green reagent and absorbance measurement at 650 nm.
For in vitro testing in the SHIP enzyme assay, AQX-016A and Compound 100 were dissolved in EtOH and diluted into aqueous buffer (20 mM Tris HCl, pH 7.5 and 10 mM MgCl2). The actual concentration of drug in solution was determined by optical density measurement at 280 nm (λmax for both compounds) after high speed centrifugation at 14 000×g for 30 min to remove precipitated drug. For testing on cells, compounds were formulated in the carrier cyclodextrin (Cyclodex Technologies, High Springs, Fla.) at 6 mM (2 mg/mL). For oral administration to animals, compounds were dissolved in 100% cremophore EL (Sigma-Aldrich Canada, Oakville, Ontario) at 150 mM (50 mg/mL) prior to dilution to 6 mM in phosphate buffer saline. However, while these compounds caged in cyclodextrin or formulated in cremophore EL micelles were very soluble in aqueous solution, they could not be used in the SHIP enzyme assays because of interference from both cyclodextrin and cremophore EL.
N-terminal His6 tagged SHIP enzyme was expressed in mammalian 293T cells by transient transfection with pME18S-His-SHIP plasmid and purified to >95% homogeneity by Ni-chelating bead chromatography (Qiagen, Mississauga, Ontario). Recombinant SHIP C2 domain (amino acid residues 725 to 863) was expressed in E. coli transformed with a pET28C expression vector constructed as described below. Recombinant protein purified from the cell lysates by Nichelating bead chromatography was >95% pure.
In vitro SHIP enzyme assay. SHIP enzyme assays were performed in 96-well microtitre plates with 10 ng of enzyme/well in a total volume of 25 μL of 20 mM Tris HCl, pH 7.5 and 10 Mm MgCl2. SHIP enzyme was incubated with test extracts (provided in DMSO) or vehicle for 15 min at 23° C. before the addition of 100 μM inositol-1,3,4,5-tetrakisphosphate (Echelon Biosciences Inc, Salt Lake City, Utah). After 20 min at 37° C. and the amount of inorganic phosphate released assessed by the addition of Malachite Green reagent and absorbance measurement at 650 nm. SHIP2 enzyme was purchased from Echelon Biosciences (Salt Lake City, Utah) and an equivalent amount of inositol phosphatase activity was used in the in vitro enzyme assay. Enzyme data are expressed as the mean of triplicates +/−SEM. Experiments were performed at least 3 times. (FIGS. 7A and 7B).

`Cc1cc(OC(=O)CN)cc2c1[C@]1(C)CCC3C(C)(C)CCC[C@]3(C)[C@H]1C2` (some centres unmarked) [Compound 103] was tested, and the “Assay Number 3: Macrophage NO” value (J774.1a macrophage cells [1]) was “+”, the “inhibition of TNFα production” value (J774.1 macrophage cells) was “Inhibits TNF Alpha Production Better than Compound 100” and the “Assay Number 2: Macrophage TNF-α production” value (J774.1a macrophage cells [2]) was “+”.

`Cc1cc(OC(=O)C(N)CCCCN)cc2c1[C@]1(C)CCC3C(C)(C)CCC[C@]3(C)[C@H]1C2` (some centres unmarked) [Compound 106] was tested, and the “Assay Number 3: Macrophage NO” value (J774.1a macrophage cells [1]) was “+”, the “inhibition of calcium influx” value [3] was “Inhibits Calcium Influx in Mast Cells” and the “Assay Number 2: Macrophage TNF-α production” value (J774.1a macrophage cells [2]) was “+”. For the same compound, the “Assay Number 4: Stimulation of mast cells by FcεRI crosslinking” value (Mast cells) was “+”.

For `O=c1cc(N2CCOCC2)oc2c(-c3ccccc3)cccc12` [LY294002, reference compound], the “suppression of TNFα production” value [4] was “up to −40%” and the “suppression of TNFα production” value [5] was “up to −40%”.

For `CCCCCCCCCCCCCCCC(=O)OC[C@H](COP(=O)(O)O[C@H]1[C@H](O)[C@@H](O)[C@H](OP(=O)(O)O)[C@@H](OP(=O)(O)O)[C@H]1O)OC(=O)CCCCCCCCCCCCCCC` [PI-3,4-P2, phosphatidylinositol-3,4-bisphosphate diC16, reference compound], the “ΔC2 SHIP enzyme activity” value (ΔC2 SHIP) was “could not be enhanced” and the SHIP enzyme activity (SHIP enzyme) was “activated wild-type SHIP enzyme to a similar extent as Compound 100”.
